# The NIST ThermoML archive (doi:10.1016/j.jct.2018.10.030)
# Numbers after ± are expanded uncertainties.
# Details: 298.15 K; 101.33 kPa; Liquid; Vibrating tube method
row,SMILES,mass density [kg/m3]
1,CC(C)O [propan-2-ol],780.69 ± 0.23
2,CCCCCCC=O [heptanal],816.83 ± 3.2
3,CCCCCC=O [hexanal],830.01 ± 1
4,C[S+](C)[O-] [dimethyl sulfoxide],1095.34 ± 0.21

# Results, then the compound that gave them:
row,mass density [kg/m3],SMILES
1,934.75 ± 0.21,CCCCC(=O)O [pentanoic acid]
2,953.05 ± 0.21,CCCC(=O)O [butanoic acid]
3,906 ± 0.32,CCCCCCCC(=O)O [octanoic acid]
4,923.07 ± 0.21,CCCCCC(=O)O [hexanoic acid]
